This is an account of results in patent US11554171B2, “Compounds and methods for the targeted degradation of bromodomain-containing proteins” (Arvinas Operations, Inc., priority 2015, dated 2023).

The term DC50 denotes the midpoint of the concentration-degradation curve.

The assay has as its system c-myc in 22RV-1 cells. Description: Human c-myc ELISA assay. Particulars: Homo sapiens; for Emax: 22Rv1, 18 h, read-out: Degradation of BRD4: Maximum inhibition (%) c-Myc ELISA in 22RV1 cells; for DC50: 22Rv1, read-out: Degradation of BRD4: DC50 (uM) c-Myc ELISA in 22RV1 cells. In kind it is cell-based. An outline of the steps: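 22RV-1 cells treated 18 h with 8-point 1:3 compound dilutions (final top 300 nM or 1 μM, 0.1% DMSO). Cells lysed in RIPA buffer with protease/phosphatase inhibitors, and c-myc protein in cleared lysate quantified by ELISA against a standard curve. DC50 reported for c-myc suppression.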
On the technique in general: ELISA stands for enzyme-linked immunosorbent assay.

For `Cc1ncsc1-c1ccc([C@H](C)NC(=O)[C@@H]2C[C@@H](O)CN2C(=O)[C@@H](NC(=O)Cc2ccc(N3CC[C@@H](NC(=O)C[C@@H]4N=C(c5ccc(Cl)cc5)c5c(sc(C)c5C)-n5c(C)nnc54)C3)cc2)C(C)(C)C)cc1` [Example 230, (2S,4R)-1-[(2S)-2-(2-{4-[(3R)-3-{2-[(9S)-7-(4-chlorophenyl)-4,5,13-trimethyl-3-thia-1,8,11,12-tetraazatricyclo[8.3.0.0^2,^6]trideca-2(6),4,7,10,12-pentaen-9-yl]acetamido}pyrrolidin-1-yl]phenyl}acetamido)-3,3-dimethylbutanoyl]-4-hydroxy-N-[(1S)-1-[4-(4-methyl-1,3-thiazol-5-yl)phenyl]ethyl]pyrrolidine-2-carboxamide], the Emax came to 100% and the DC50 is less than 0.01 µM.
The like results for `Cc1ncsc1-c1ccc(CNC(=O)[C@@H]2C[C@@H](O)CN2C(=O)[C@@H](C(C)C)n2cc(-c3cccc(O[C@H]4C[C@H](NC(=O)C[C@@H]5N=C(c6ccc(Cl)cc6)c6c(sc(C)c6C)-n6c(C)nnc65)C4)c3)cn2)cc1` [Example 216] were, in that order, 14.4% and more than 1 µM.
The corresponding values for `Cc1ncsc1-c1ccc(CNC(=O)[C@@H]2C[C@@H](O)CN2C(=O)[C@@H](NC(=O)Cc2ccc(OCCNC(=O)C[C@@H]3N=C(c4ccc(Cl)cc4)c4c(sc(C)c4C)-n4c(C)nnc43)cc2)C(C)(C)C)cc1` [Example 80, (2S,4R)-1-[(2S)-2-{2-[4-(2-{2-[(9S)-7-(4-chlorophenyl)-4,5,13-trimethyl-3-thia-1,8,11,12-tetraazatricyclo[8.3.0.0^2,^6]trideca-2(6),4,7,10,12-pentaen-9-yl]acetamido}ethoxy)phenyl]acetamido}-3,3-dimethylbutanoyl]-4-hydroxy-N-{[4-(4-methyl-1,3-thiazol-5-yl)phenyl]methyl}pyrrolidine-2-carboxamide] are 97.5% and 0.01 to 0.1 µM.
For the compound `Cc1ncsc1-c1ccc(CNC(=O)[C@@H]2C[C@@H](O)CN2C(=O)[C@@H](NC(=O)COCCCOCCCOc2ccc([C@H](C)NC(=O)C[C@@H]3N=C(c4ccc(Cl)cc4)c4c(sc(C)c4C)-n4c(C)nnc43)cc2)C(C)(C)C)cc1` [Example 25, (2S,4R)-1-[(2S)-2-{2-[3-(3-{4-[(1S)-1-{2-[(9S)-7-(4-chlorophenyl)-4,5,13-trimethyl-3-thia-1,8,11,12-tetraazatricyclo[8.3.0.0^2,^6]trideca-2(6),4,7,10,12-pentaen-9-yl]acetamido}ethyl]phenoxy}propoxy)propoxy]acetamido}-3,3-dimethylbutanoyl]-4-hydroxy-N-{[4-(4-methyl-1,3-thiazol-5-yl)phenyl]methyl}pyrrolidine-2-carboxamide], the Emax amounted to 100% and the DC50 lay in the range of 0.01 to 0.1 µM.
With `Cc1ncsc1-c1ccc([C@H](C)NC(=O)[C@@H]2C[C@@H](O)CN2C(=O)[C@@H](C(C)C)n2cc(-c3cc(O[C@H]4C[C@@H](NC(=O)C[C@@H]5N=C(c6ccc(Cl)cc6)c6c(sc(C)c6C)-n6c(C)nnc65)C4)ccn3)cn2)cc1` [Example 303], the Emax is 9.8% and the DC50 was more than 1 µM.
In the case of `Cc1ncsc1-c1ccc(CNC(=O)[C@@H]2C[C@@H](O)CN2C(=O)[C@@H](c2cc(Oc3ccc(O[C@H]4C[C@@H](NC(=O)C[C@@H]5N=C(c6ccc(Cl)cc6)c6c(sc(C)c6C)-n6c(C)nnc65)C4)nc3)no2)C(C)C)cc1` [Example 325], the Emax came out at 81.5% and the DC50 is 0.01 to 0.1 µM.
For `Cc1ncsc1-c1ccc(CNC(=O)[C@@H]2C[C@@H](O)CN2C(=O)[C@@H](NC(=O)COCCCOc2ccc3c(c2)c2c(C(N)=O)cc(-c4c(C)noc4C)cc2n3Cc2ccccc2)C(C)(C)C)cc1` [Example 184], the Emax amounted to 91.5% and the DC50 lay in the range of 0.01 to 0.1 µM.
Regarding `CCc1ccc(C2=N[C@@H](CC(=O)Nc3ccc(OCCCOCCCOCC(=O)N[C@H](C(=O)N4C[C@H](O)C[C@H]4C(=O)NCc4ccc(-c5scnc5C)cc4)C(C)(C)C)cc3)c3nnc(C)n3-c3sc(C)c(C)c32)cc1` [Example 64, (2S,4R)-1-[(2S)-2-(2-{3-[3-(4-{2-[(9S)-7-(4-ethylphenyl)-4,5,13-trimethyl-3-thia-1,8,11,12-tetraazatricyclo[8.3.0.0^2,^6]trideca-2(6),4,7,10,12-pentaen-9-yl]acetamido}phenoxy)propoxy]propoxy}acetamido)-3,3-dimethylbutanoyl]-4-hydroxy-N-{[4-(4-methyl-1,3-thiazol-5-yl)phenyl]methyl}pyrrolidine-2-carboxamide], the Emax was 96.5% and the DC50 was in the range of 0.01 to 0.1 µM.
The like results for `CCc1nnc2n1-c1sc(C)c(C)c1C(c1ccc(Cl)cc1)=N[C@H]2CC(=O)Nc1ccc(OCCCOCCCOCC(=O)N[C@H](C(=O)N2C[C@H](O)C[C@H]2C(=O)NCc2ccc(-c3scnc3C)cc2)C(C)(C)C)cc1` [Example 47] were, in that order, 89% and 0.1 to 1 µM.
Regarding `Cc1ncsc1-c1ccc([C@H](C)NC(=O)[C@@H]2C[C@@H](O)CN2C(=O)[C@@H](C(C)C)n2cc(-c3cc(F)cc(OCCNC(=O)C[C@@H]4N=C(c5ccc(Cl)cc5)c5c(sc(C)c5C)-n5c(C)nnc54)c3)cn2)cc1` [Example 223], the Emax is 79% and the DC50 was 0.1 to 1 µM.
The like results for `Cc1ncsc1-c1ccc(CNC(=O)[C@@H]2C[C@@H](O)CN2C(=O)[C@@H](c2cc(OCCN3CC[C@@H](NC(=O)C[C@@H]4N=C(c5ccc(Cl)cc5)c5c(sc(C)c5C)-n5c(C)nnc54)C3)no2)C(C)C)cc1` (single isomer, unassigned) [Example 312] were, in that order, 87.5% and less than 0.01 µM.
Turning to `Cc1ncsc1-c1ccc(CNC(=O)C2C[C@@H](O)CN2C(=O)[C@@H](NC(=O)COCCOCCOCCOCCOc2ccc3c(c2)c2c(C(N)=O)cc(-c4c(C)noc4C)cc2n3Cc2ccccc2)C(C)(C)C)cc1` (stereo partly shown) [Example 89, 9-Benzyl-2-(dimethyl-1,2-oxazol-4-yl)-6{[1-({1-[4-hydroxy-2-({[4-(4-methyl-1,3-thiazol-5-yl)phenyl]methyl}carbamoyl)pyrrolidin-1-yl]-3,3-dimethyl-1-oxobutan-2-yl}carbamoyl)-2,5,8,11-tetraoxatridecan-13-yl]oxy}-9H-carbazole-4-carboxamide], the Emax was determined as 99.5% and the DC50 fell in the range of 0.01 to 0.1 µM.
The like results for `Cc1noc(-c2ccc([C@H](C)NC(=O)[C@@H]3C[C@@H](O)CN3C(=O)[C@@H](NC(=O)COc3ccc(O[C@H]4C[C@@H](NC(=O)C[C@@H]5N=C(c6ccc(Cl)cc6)c6c(sc(C)c6C)-n6c(C)nnc65)C4)nc3)C(C)(C)C)cc2)n1` [Example 271] were, in that order, 96.4% and less than 0.01 µM.
The corresponding values for `Cc1ncsc1-c1ccc([C@H](C)NC(=O)[C@@H]2C[C@@H](O)CN2C(=O)[C@H](C(C)C)n2cc(-c3ccnc(N4CCN(C(=O)C[C@@H]5N=C(c6ccc(Cl)cc6)c6c(sc(C)c6C)-n6c(C)nnc65)CC4)c3)cn2)cc1` [Example 322] are 92.6% and less than 0.01 µM.
The like results for `Cc1ncsc1-c1ccc([C@H](C)NC(=O)[C@@H]2C[C@@H](O)CN2C(=O)C(C(C)C)n2cc(-c3cc(F)cc(O[C@H]4C[C@@H](NC(=O)C[C@@H]5N=C(c6ccc(Cl)cc6)c6c(sc(C)c6C)-n6c(C)nnc65)C4)c3)cn2)cc1` (stereo partly shown) [Example 214] were, in that order, 97% and 0.01 to 0.1 µM.
Turning to `Cc1ncsc1-c1ccc([C@H](C)NC(=O)[C@@H]2C[C@@H](O)CN2C(=O)[C@@H](NC(=O)COc2ccc(N3CCN(C(=O)C[C@@H]4N=C(c5ccc(Cl)cc5)c5c(sc(C)c5C)-n5c(C)nnc54)CC3)nc2)C(C)(C)C)cc1` [Example 288], the Emax was 98% and the DC50 was less than 0.01 µM.
As for `Cc1ncsc1-c1ccc([C@H](C)NC(=O)[C@@H]2C[C@@H](O)CN2C(=O)[C@H](C(C)C)n2cc(-c3cnc(O[C@H]4C[C@H](NC(=O)C[C@@H]5N=C(c6ccc(Cl)cc6)c6c(sc(C)c6C)-n6c(C)nnc65)C4)cn3)cn2)cc1` [Example 284], the Emax was found to be 93.4% and the DC50 was less than 0.01 µM.
The like results for `Cc1ncsc1-c1ccc(CNC(=O)[C@@H]2C[C@@H](O)CN2C(=O)[C@@H](c2cc(OCCO[C@H]3C[C@@H](NC(=O)C[C@@H]4N=C(c5ccc(Cl)cc5)c5c(sc(C)c5C)-n5c(C)nnc54)C3)no2)C(C)C)cc1` [Example 317] were, in that order, 89.9% and less than 0.01 µM.
For `Cc1ncsc1-c1ccc(CNC(=O)[C@@H]2C[C@@H](O)CN2C(=O)[C@H](C(C)C)n2cc(Oc3ccc(CNC(=O)C[C@@H]4N=C(c5ccc(Cl)cc5)c5c(sc(C)c5C)-n5c(C)nnc54)cc3)cn2)cc1` [Example 238], the Emax amounted to 93.3% and the DC50 fell in the range of 0.01 to 0.1 µM.
`Cc1ncsc1-c1ccc([C@H](C)NC(=O)[C@@H]2C[C@@H](O)CN2C(=O)[C@@H](NC(=O)CN2CCC(C(=O)N3CCN(C(=O)C[C@@H]4N=C(c5ccc(Cl)cc5)c5c(sc(C)c5C)-n5c(C)nnc54)CC3)CC2)C(C)(C)C)cc1` [Example 334]: the Emax was 97% and the DC50 was less than 0.01 µM.
The like results for `Cc1ncsc1-c1ccc(CNC(=O)[C@@H]2C[C@@H](O)CN2C(=O)[C@@H](NC(=O)COCCCOCC#Cc2ccc([C@H](C)NC(=O)C[C@@H]3N=C(c4ccc(Cl)cc4)c4c(sc(C)c4C)-n4c(C)nnc43)cc2)C(C)(C)C)cc1` [Example 40] were, in that order, 97.5% and 0.01 to 0.1 µM.
The corresponding values for `Cc1ncsc1-c1ccc(CNC(=O)[C@@H]2C[C@@H](O)CN2C(=O)[C@H](c2cc(OCCN3CC[C@H](NC(=O)C[C@@H]4N=C(c5ccc(Cl)cc5)c5c(sc(C)c5C)-n5c(C)nnc54)C3)no2)C(C)C)cc1` [Example 309] are 18% and more than 1 µM.
Turning to `Cc1sc2c(c1C)C(c1ccc(Cl)cc1)=N[C@@H](CC(=O)N[C@H]1C[C@@H](Oc3cccc(-c4cnn([C@H](C(=O)N5C[C@H](O)C[C@H]5C(=O)N[C@@H](C)c5ccc(-c6nccn6C)cc5)C(C)C)c4)c3)C1)c1nnc(C)n1-2` [Example 291], the Emax was found to be 22.2% and the DC50 is more than 1 µM.
